Results: PubChem BioAssay AID2060892 (Molecular Pharmacology Branch, DTP, NCI, 2025)

Test system: HOP-62 complex spheroids with HUVEC/MSC, viability
Assay: Anticancer human tumor HOP-62 cell line growth inhibition [RAS];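 note: spheroids exposed to agents for seven days before readout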;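 for viability, T/C: 100% = DMSO vehicle control viability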
Settings: for IC50: curve of first compound; for viability, T/C: stronger effect = lower value
From the text: RAS pathway inhibitors in Combinations in Complex Spheroids
A high-throughput screen of multi-cell type tumor spheroids was designed to identify active combinations of RAS pathway inhibitors and targeted small molecules. Complex spheroids include a stromal component modeled by human endothelial cells (HUVEC) and fibroblasts modeled by human mesenchymal stem cells (MSCs). The concentration ranges selected for each drug and investigational agent were based upon clinically achievable concentrations if the clinical Cmax of the agent was known.
Compounds. The drugs and investigational agents: abemaciclib (NSC768073), cobimetinib (NSC768068), divarasib (GDC6063, NSC841802), docetaxel (NSC628503), GDC-1971 (RLY-1971, NSC841576), gemcitabine (NSC613327), inavolisib (NSC800729), ipatasertib (NSC767898), KB-0742 (NSC834161), MRTX-1133 (NSC836407), osimertinib (NSC779217), RMC-4630 (NSC839698), RMC-6236 (NSC851965), RMC-6291 (NSC852671), Ro-3306 (NSC812927), sapanisertib (NSC764658), SN-38 (NSC673596), staurosporine (NSC755774), SY5609 (NSC837396), and tovorafenib (DAY101, NSC766906), were obtained from the National Cancer Institute (NCI) Developmental Therapeutics Program Chemical Repository. The FDA-approved anticancer drug set is available from the NCI Developmental Therapeutics Program. […] The stock solutions were prepared in dimethyl sulfoxide (DMSO, Sigma-Aldrich, St. Louis, MO, cat. D2650) at 800-fold the tested concentration and stored at -70 degrees C prior to their use. All drugs and investigational agents were tested over a range starting from a high concentration at or near the clinical Cmax and decreasing in half-log increments. If the clinical Cmax for an agent had not been determined, the highest concentration tested was 10 microM.
Cell Culture. All cells were maintained in an incubator at 37 degrees C and 5% CO2 with 95% humidity. The PDC lines were cultured according to standard operating procedures established by the NCI PDMR. All PDCs were thawed and cultured in Matrigel-coated flasks prepared with a working solution of 1X Ham's F-12 nutrient mix, without supplementation (Invitrogen, Waltham, MA, cat. 11765054), 100 U/mL penicillin-streptomycin (Invitrogen, cat. 15140122), and 2.5% Matrigel (Corning Inc., Corning, NY, cat. 354248) for the first three passages. The 362531-283-R-J2-PDC and 782815-120-R-J1-PDC lines were cultured in 6C/Colon 1B media, which includes advanced DMEM/F-12 (Thermo Fisher Scientific, cat. 12634028), 10 mM HEPES (Thermo Fisher Scientific, cat. 15630080), 1X GlutaMAX supplement (Thermo Fisher Scientific, cat. 35050061), 0.1 mg/mL primocin (InvivoGen, San Diego, CA, cat. ant-pm-2), 10% defined fetal bovine serum, heat inactivated (HyClone Laboratories Inc., Logan, UT, cat. SH30070.03HI), 50% L-WRN conditioned media (ATCC, cat. CRL-3276), 1.25 mM N-Acetyl-L-cysteine (Sigma-Aldrich, cat. A9165), 10 mM nicotinamide (Sigma-Aldrich, cat. N0636), 1X B-27 supplement (Thermo Fisher Scientific, cat. 17504044), 1X N-2 supplement (Thermo Fisher Scientific, cat. 17502048), 50 ng/mL human EGF (Thermo Fisher Scientific, cat. PHG0311), and 10 microM Y-27632 dihydrochloride (Tocris Bioscience, cat. 1254). The K12877-001-R-J1-PDC line was cultured in 6I media, which includes all 6C/Colon 1B media plus 10 ng/mL human FGF-10 (PeproTech, cat. 100-26), 1 ng/mL human FGF-2 (PeproTech, cat. 100-18B), 1 µM prostaglandin E2 (Tocris Bioscience, cat. 2296), […] hydrocortisone (Sigma-Aldrich, cat. H4001), and […] bovine insulin (Sigma-Aldrich, cat. I6634). The K86415-001-R-J1-PDC line was cultured in 6D media, which includes all 6C/Colon 1B media components minus the L-WRN conditioned media. The 485176-168-R4-J1-PDC was cultured in PANC media, which includes all 6C/Colon 1B media plus 100 ng/mL human FGF-10 (PeproTech, cat. 100-26), 500 nM SB-431542 (Selleckchem, cat. S1067), and 10 nM gastrin (Tocris Bioscience, cat. 3006). […]

[1] = second compound 0.0316 µM, first compound 0.0316 µM
[2] = second compound 0.0316 µM, first compound 0.1 µM
[3] = second compound 0.0316 µM, first compound 0.316 µM
[4] = second compound 0.0316 µM, first compound 1 µM
[5] = second compound 0.0316 µM, first compound 3.16 µM
[6] = second compound 0.0316 µM, first compound 10 µM
[7] = second compound 0.1 µM, first compound 0.0316 µM
[8] = second compound 0.1 µM, first compound 0.1 µM
[9] = second compound 0.1 µM, first compound 0.316 µM
[10] = second compound 0.1 µM, first compound 1 µM
[11] = second compound 0.1 µM, first compound 3.16 µM
[12] = second compound 0.1 µM, first compound 10 µM
[13] = second compound 0.316 µM, first compound 0.0316 µM
[14] = second compound 0.316 µM, first compound 0.1 µM
[15] = second compound 0.316 µM, first compound 0.316 µM
[16] = second compound 0.316 µM, first compound 1 µM
[17] = second compound 0.316 µM, first compound 3.16 µM
[18] = second compound 0.316 µM, first compound 10 µM
[19] = second compound 1 µM, first compound 0.0316 µM
[20] = second compound 1 µM, first compound 0.1 µM
[21] = second compound 1 µM, first compound 0.316 µM
[22] = second compound 1 µM, first compound 1 µM
[23] = second compound 1 µM, first compound 3.16 µM
[24] = second compound 1 µM, first compound 10 µM
[25] = second compound 3.16 µM, first compound 0.0316 µM
[26] = second compound 3.16 µM, first compound 0.1 µM
[27] = second compound 3.16 µM, first compound 0.316 µM
[28] = second compound 3.16 µM, first compound 1 µM
[29] = second compound 3.16 µM, first compound 3.16 µM
[30] = second compound 3.16 µM, first compound 10 µM
[31] = second compound 10 µM, first compound 0.0316 µM
[32] = second compound 10 µM, first compound 0.1 µM
[33] = second compound 10 µM, first compound 0.316 µM
[34] = second compound 10 µM, first compound 1 µM
[35] = second compound 10 µM, first compound 3.16 µM
[36] = second compound 10 µM, first compound 10 µM

## CC(C)NCC(C(=O)N1CCN(c2ncnc3c2C(C)CC3O)CC1)c1ccc(Cl)cc1 (centres undefined) + C#Cc1c(F)ccc2cc(O)cc(-c3ncc4c(N5CC6CCC(C5)N6)nc(OCC56CCCN5CC(F)C6)nc4c3F)c12
Second compound 0.0316 µM
  IC50: 2440 nM
Second compound 0.1 µM
  IC50: 2810 nM
Second compound 0.316 µM
  IC50: 2730 nM
Second compound 1 µM
  IC50: 1720 nM
Second compound 3.16 µM
  IC50: 676 nM
Second compound 10 µM
  IC50: 62.1 nM
[1]
  viability, T/C: 105%
[2]
  viability, T/C: 113%
[3]
  viability, T/C: 92.2%
[4]
  viability, T/C: 71.2%
[5]
  viability, T/C: 44.6%
[6]
  viability, T/C: 28.3%
[7]
  viability, T/C: 112%
[8]
  viability, T/C: 105%
[9]
  viability, T/C: 99.2%
[10]
  viability, T/C: 70%
[11]
  viability, T/C: 49.8%
[12]
  viability, T/C: 28.3%
[13]
  viability, T/C: 105%
[14]
  viability, T/C: 104%
[15]
  viability, T/C: 96.3%
[16]
  viability, T/C: 73.1%
[17]
  viability, T/C: 47.5%
[18]
  viability, T/C: 27%
[19]
  viability, T/C: 108%
[20]
  viability, T/C: 100%
[21]
  viability, T/C: 86.5%
[22]
  viability, T/C: 59.9%
[23]
  viability, T/C: 38.5%
[24]
  viability, T/C: 23.5%
[25]
  viability, T/C: 72.2%
[26]
  viability, T/C: 75%
[27]
  viability, T/C: 63.9%
[28]
  viability, T/C: 41.6%
[29]
  viability, T/C: 26.1%
[30]
  viability, T/C: 16.1%
[31]
  viability, T/C: 54.3%
[32]
  viability, T/C: 47%
[33]
  viability, T/C: 35.2%
[34]
  viability, T/C: 23%
[35]
  viability, T/C: 13.7%
[36]
  viability, T/C: 9.15%

## CC(Nc1ccc2c(c1)OCCn1cc(N3C(=O)OCC3C(F)F)nc1-2)C(N)=O (centres undefined) + C#Cc1c(F)ccc2cc(O)cc(-c3ncc4c(N5CC6CCC(C5)N6)nc(OCC56CCCN5CC(F)C6)nc4c3F)c12
Second compound 0.0316 µM
  IC50: 1330 nM
Second compound 0.1 µM
  IC50: 1610 nM
Second compound 0.316 µM
  IC50: 1020 nM
Second compound 1 µM
  IC50: 751 nM
Second compound 3.16 µM
  IC50: 96.4 nM
Second compound 10 µM
  IC50: < 31.6 nM
[1]
  viability, T/C: 80.5%
[2]
  viability, T/C: 69.2%
[3]
  viability, T/C: 54.6%
[4]
  viability, T/C: 59.8%
[5]
  viability, T/C: 42.8%
[6]
  viability, T/C: 32.9%
[7]
  viability, T/C: 85.6%
[8]
  viability, T/C: 78.5%
[9]
  viability, T/C: 57%
[10]
  viability, T/C: 58.4%
[11]
  viability, T/C: 45.9%
[12]
  viability, T/C: 32.8%
[13]
  viability, T/C: 86.9%
[14]
  viability, T/C: 68.9%
[15]
  viability, T/C: 59.6%
[16]
  viability, T/C: 52.9%
[17]
  viability, T/C: 41.3%
[18]
  viability, T/C: 31.4%
[19]
  viability, T/C: 78.5%
[20]
  viability, T/C: 67.4%
[21]
  viability, T/C: 53.5%
[22]
  viability, T/C: 50.6%
[23]
  viability, T/C: 39.2%
[24]
  viability, T/C: 28.4%
[25]
  viability, T/C: 67.8%
[26]
  viability, T/C: 41.7%
[27]
  viability, T/C: 40%
[28]
  viability, T/C: 32.3%
[29]
  viability, T/C: 22.3%
[30]
  viability, T/C: 15.1%
[31]
  viability, T/C: 31.3%
[32]
  viability, T/C: 22.8%
[33]
  viability, T/C: 19.2%
[34]
  viability, T/C: 17.3%
[35]
  viability, T/C: 12.6%
[36]
  viability, T/C: 10.2%
